This is an account of results in patent US20260337661A1, “BIOMARKERS OF THE INTEGRATED STRESS RESPONSE AND USES THEREOF” (Calico Life Sciences LLC, priority 2023, published 2026).

Molecules are shown by their SMILES.

For assay [1] the following is noted: previously shown; cited from earlier work.
The next assay concerns ISR signature genes. Kind of assay: Gene expression of the ISR signature in cerebellum and spinal cord of VWM mice treated with 2BAct. Format: in vivo, mouse. The conditions noted are these: 30 mg/kg in food pellets, four months. Here is the method: (§1) FIGS. 2A and 2B depict gene expression of the ISR signature and GDF15 in the cerebellum (FIG. 2A) and spinal cord (FIG. 2B) of VWM mice and WT mice following 4 months of treatment with 30 mg/kg 2BAct in food pellets or control chow. Samples were also collected after a drug washout period of 2 months.
(§2) In this example, a VWMD mouse model harboring a R191H mutation in eIF2B was used.
(§3) VWM mice and WT mice were treated with 2BAct at 30 mg/kg for four months in food pellets. Subsequently, expressions of ISR signature genes and GDF15 in the cerebellum were determined.

Assay [2] has as its system ISR signature genes, including Atf5, Eif4ebp1 and Trib3. The conditions noted are these: previously shown; cited from earlier work.
Assay [3] deals with GDF15. Kind of assay: GDF15 protein levels in CSF and plasma of VWM mice treated with 2BAct. The class given is in vivo, mouse. Here is the method: FIG. 2E and FIG. 2F show GDF15 protein levels determined in CSF (FIG. 2E) and plasma (FIG. 2F) in WT mice, VWM mice, and VWM mice treated with 2BAct for 4 months and 2 months after cessation of 2BAct treatment. *p<0.05, **p<0.01, ***p<0.001 by Mann Whitney.
as §2, §3

Assay [4] deals with GDF15. Kind of assay: GDF15 mRNA levels in the CNS (cerebellum, spinal cord) of VWM mice treated with 2BAct. The conditions noted are these: cerebellum and spinal cord, FIGS. 2C and 2D. Format: in vivo, mouse. Here is the method: as §1
FIG. 2C and FIG. 2D show GDF15 mRNA levels determined in cerebellum (FIG. 2C) and spinal cord (FIG. 2D) in WT mice, VWM mice, and VWM mice treated with 2BAct for 4 months and 2 months after cessation of 2BAct treatment. *p<0.05, **p<0.01, ***p<0.001 by Mann Whitney.
as §2, §3

The subject of assay [5] is GDF15. Kind of assay: GDF15 protein in astrocyte-derived exosomes (ADE) and neuron-derived exosomes (NDE) in plasma of VWM mice (immunoassay). The class given is in vivo, mouse. Here is the method:
GDF15 protein was quantified in astrocyte-derived exosomes (ADEs) or neuron-derived exosomes (NDEs) in plasma using immunoassay. ADEs and NDEs were captured with anti-GLAST antibody and anti-SNAP25 antibody, respectively. GLAST is an astrocyte specific cell-surface protein; SNAP25 is highly expressed on neuronal membrane. The detection of GDF15 was performed by incubation with a specific anti-GDF15 antibody followed by an anti-mouse IgG conjugated to Horseradish peroxidase.

Regarding `O=C(COc1ccc(Cl)c(F)c1)NC12CC(NC(=O)c3cnc(C(F)F)cn3)(C1)C2` [Compound 2BAct], in assay [1], the motor deficit result is “corrected motor deficit”. The “ISR gene expression signature in the cerebellum” value in the assay with ISR signature genes (FIG. 2A) is on record as “inhibited the ISR gene expression signature”. In the assay on ISR signature genes (FIG. 2B), the “ISR gene expression signature in the spinal cord” value is listed as “inhibited the ISR gene expression signature”. In addition, in assay [2], the “ISR signature genes, including Atf5, Eif4ebp1 and Trib3, in the brain” value is given as “suppress the ISR signature genes”. Moreover, the “CSF GDF15 levels after treatment” value in the assay with GDF15 [3] (30 mg/kg in food pellets, 4-month treatment, FIG. 2E) was “suppressed”. For the same compound, the “plasma GDF15” value with GDF15 [3] (30 mg/kg in food pellets, four months, FIG. 2F) was “did not affect plasma GDF15”. Also, the “CSF GDF15 levels following drug washout” value with GDF15 [3] (2 months of drug washout after 4-month treatment, FIG. 2E) is listed as “returned to pre-dose baseline levels”. Moreover, the “GDF15 mRNA levels in the CNS following treatment” value in the assay on GDF15 [4] (30 mg/kg in food pellets, four months) was “markedly reduced”. In the assay with GDF15 [4] (2 months after cessation of 4-month treatment), the “GDF15 mRNA levels in the CNS after cessation of treatment” value is reported as “rebounded to pre-treatment levels”. Also, the “GDF15 expression in plasma ADE” value in the assay on GDF15 [5] (30 mg/kg for 10 days, FIG. 7A) is “suppressed GDF15 expression in plasma ADE and NDE to the level present in WT mice”. The “GDF15 expression in plasma NDE” value in the assay on GDF15 [5] (30 mg/kg for 10 days, FIG. 7B) was “suppressed GDF15 expression in plasma ADE and NDE to the level present in WT mice”. Also, in the assay with GDF15 [5] (astrocyte derived exosomes, FIG. 7A), the “downmodulation of GDF15 expression on VWM ADE” value is 2.7 fold. In addition, in the assay on GDF15 [5] (neuron derived exosomes, FIG. 7B), the “downmodulation of GDF15 expression on VWM NDE” value was 1.7 fold.
